Series [1] deals with T1, human IL-23R (Homo sapiens, UniProt Q5VWK5).
T1 sequence (Q5VWK5 24-353 limits assumed): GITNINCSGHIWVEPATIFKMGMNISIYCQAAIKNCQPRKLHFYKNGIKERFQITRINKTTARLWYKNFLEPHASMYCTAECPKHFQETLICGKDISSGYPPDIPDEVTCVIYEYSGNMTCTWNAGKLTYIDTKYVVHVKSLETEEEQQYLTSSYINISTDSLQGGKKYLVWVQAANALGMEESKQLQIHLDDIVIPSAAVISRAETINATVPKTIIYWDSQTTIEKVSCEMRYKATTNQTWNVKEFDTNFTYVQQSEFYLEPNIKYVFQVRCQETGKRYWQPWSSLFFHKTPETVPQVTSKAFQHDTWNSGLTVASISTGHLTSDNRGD
Nature of the series: Inhibition of IL-23 binding to IL-23R as measured by ELISA (Table 8). As to conditions: human IL23 coated 1 μg/ml; human IL-23R-Fc 0.1 μg/ml; 60 min; read-out: Human ELISA IL23/IL23R IC50. Here is the method: Antagonism of compounds for human interleukin-23 receptor inhibitors, was determined by an ELISA assay.
A 384-well plate was coated with 50 μl/well of human IL23 at a final concentration of 1 μg/ml and incubated overnight at 4° C. The wells were washed 3 times with 80 μl wash buffer and blocked with 80 μl blocking buffer for 60 minutes at room temperature and washed again. 20 μl of serially diluted test peptides was added to each well and subsequently 20 μl of recombinant human IL-23R-Fc chimera at final concentration of 0.1 μg/ml. The plate was incubated for 60 minutes at room temperature. After the wells were washed, bound IL23R-Fc was detected with goat anti-hu-IgG1-HRP antibody. Signals were visualized with QUANTABLU fluorogenic peroxidase substrate.

Series [2] in a line: Protease stability in simulated intestinal fluids (FaSSIF) (Table 7). Format: in vitro ADME. Particulars: fassif with pancreatin, 37° C.; for remaining at 1 h, 1 µM: 60 min, read-out: Remaining percentage of peptide compound, FaSSIF 60 (min); for remaining at 2 h, 1 µM: 120 min, read-out: Remaining percentage of peptide compound, FaSSIF 120 (min); for remaining at 4 h, 1 µM: 240 min, read-out: Remaining percentage of peptide compound, FaSSIF 240 (min). The method in brief:
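1 μM peptide incubated at 37° C in simulated fluid (pancreatin-SIF prepared from pancreatin in SIF concentrate). Samples quenched with acidified ethanol at 0, 60, 120 and 240 min and analysed by LC-MS/MS. Percentage remaining from peak area relative to T0 (100%).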

Structures are written as SMILES. pIC50: −log10 of the molar value. Numbered stars: 1 amine (or outer) side, 2 acyl side, 3 side chain; on linkers, the order of the positions; unused ones are H or OH. Bridge positions count the residues as written; N and C are the ends. Square brackets hold non-standard residues; d marks the D form. Peptide text beside a SMILES is read from it. * marks the point of attachment. Lys(Me,(CH2)4NMe(CH2)5CO) = CN(CCCCCC(=O)[*:3])CCCCN(C)CCCC[C@H](N[*:1])C(=O)[*:2]; X2 = O=C(Cc1ccc(-c2ccc(CC(=O)[*:2])cc2)cc1)[*:1]; Trp(7-Me) = Cc1cccc2c(C[C@H](N)C(=O)O)c[nH]c12; Sebacoyl = O=C(CCCCCCCCC(=O)[*:2])[*:1]; NH(CH2)9CO = O=C(CCCCCCCCCN[*:1])[*:2]; 2Nal = N[C@@H](Cc1ccc2ccccc2c1)C(=O)O; Suberoyl = O=C(CCCCCCC(=O)[*:2])[*:1]; d2Nal = N[C@H](Cc1ccc2ccccc2c1)C(=O)O; C12 diacid = O=C(O)CCCCCCCCCCC(=O)*; X1 = O=C(CCCCCCCCCCCCCN[*:1])[*:2]; 3Pal = N[C@@H](Cc1cccnc1)C(=O)O; 12Ado = NCCCCCCCCCCCC(=O)O; AEEEA = NCCOCCOCCOCC(=O)O; Aun = NCCCCCCCCCCC(=O)O; Thp = NC1(C(=O)O)CCOCC1; Me2NCH2CH2 = CN(C)CC*; Aib = CC(C)(N)C(=O)O; Aoc = NCCCCCCCC(=O)O; Sar = CNCC(=O)O

The values that follow come from patent US20260297129A1, “PEPTIDES AS SELECTIVE IL-23 RECEPTOR INHIBITORS” (SANOFI, priority 2023, published 2026).

For the molecule `Cc1cccc2c(C[C@@H]3NC(=O)CCCCCCCCCCCCCNC(=O)CC[C@@H](C(=O)N[C@@H](CC(N)=O)C(=O)N[C@@H](Cc4cccnc4)C(=O)N(C)CC(N)=O)NC(=O)C(C)(C)NC(=O)[C@H](Cc4ccc5ccccc5c4)NC(=O)[C@H](Cc4ccc(OCCN(C)C)cc4)NC(=O)C4(CCOCC4)NC(=O)[C@H](CCC(N)=O)NC3=O)c[nH]c12` [compound 1] ([X1][Trp(7-Me)]Q[Thp]Y(Me2NCH2CH2)[2Nal][Aib]EN[3Pal][Sar]-NH2; lactam N-8), in series [1], the pIC50 is 9.52. In series [2], the share remaining at 1 h, 1 µM was 96%; the share remaining at 2 h, 1 µM is 90%; the share remaining at 4 h, 1 µM is 90%.
Regarding `CC(=O)NCCCC[C@@H]1NC(=O)[C@H](Cc2c[nH]c3c(C)cccc23)NC(=O)CCCCCN(C)CCCCN(C)CCCC[C@@H](C(=O)N[C@@H](CC(N)=O)C(=O)N[C@@H](Cc2cccnc2)C(=O)N(C)CC(N)=O)NC(=O)C(C)(C)NC(=O)[C@H](Cc2ccc3ccccc3c2)NC(=O)[C@H](Cc2ccc(OCCN(C)C)cc2)NC(=O)C2(CCOCC2)NC1=O` [compound 18] ([Trp(7-Me)]K(Ac)[Thp]Y(Me2NCH2CH2)[2Nal][Aib][Lys(Me,(CH2)4NMe(CH2)5CO)]N[3Pal][Sar]-NH2; lactam N-7), in series [1], the pIC50 is 9.17. Further, in series [2], the amount remaining at 1 h, 1 µM was 95%; the amount remaining at 2 h, 1 µM is 88%; the fraction remaining at 4 h, 1 µM is 85%.
`Cc1cccc2c(C[C@@H]3NC(=O)CCCCCCCCCNC(=O)CC[C@@H](C(=O)N[C@@H](CC(N)=O)C(=O)N[C@@H](Cc4cccnc4)C(=O)N(C)CC(N)=O)NC(=O)C(C)(C)NC(=O)[C@H](Cc4ccc5ccccc5c4)NC(=O)[C@H](Cc4ccc(OCCN(C)C)cc4)NC(=O)C4(CCOCC4)NC(=O)[C@H](CC(C)C)NC3=O)c[nH]c12` [compound 8] ([NH(CH2)9CO][Trp(7-Me)]L[Thp]Y(Me2NCH2CH2)[2Nal][Aib]EN[3Pal][Sar]-NH2; lactam N-8): in series [1], the pIC50 was 8.77. Further, in series [2], the fraction remaining at 1 h, 1 µM is 79%; the fraction remaining at 2 h, 1 µM is 79%; the amount remaining at 4 h, 1 µM is 72%.
For `CC(=O)NCCCC[C@@H]1NC(=O)[C@H](Cc2c[nH]c3c(C)cccc23)NC(=O)[C@@H](NC(C)=O)CCCCN(C)CCCCN(C)CCCC[C@@H](C(=O)N[C@@H](CC(N)=O)C(=O)N[C@@H](Cc2cccnc2)C(=O)N(C)CC(N)=O)NC(=O)C(C)(C)NC(=O)[C@@H](Cc2ccc3ccccc3c2)NC(=O)[C@H](Cc2ccc(OCCN(C)C)cc2)NC(=O)C2(CCOCC2)NC1=O` [compound 13], in series [1], the pIC50 was 9.39. For the same molecule, in series [2], the share remaining at 1 h, 1 µM is 90%; the share remaining at 2 h, 1 µM was 89%; the share remaining at 4 h, 1 µM was 88%.
For the molecule `Cc1cccc2c(C[C@@H]3NC(=O)Cc4ccc(cc4)-c4ccc(cc4)CC(=O)NCCCC[C@@H](C(=O)N[C@@H](CC(N)=O)C(=O)N[C@@H](Cc4cccnc4)C(=O)N(C)CC(N)=O)NC(=O)C(C)(C)NC(=O)[C@H](Cc4ccc5ccccc5c4)NC(=O)[C@H](Cc4ccc(OCCN(C)C)cc4)NC(=O)C4(CCOCC4)NC(=O)[C@H](CCC(N)=O)NC3=O)c[nH]c12` [compound 15] ([Trp(7-Me)]Q[Thp]Y(Me2NCH2CH2)[2Nal][Aib]KN[3Pal][Sar]-NH2; linker N-7 via X2), in series [1], the pIC50 was 9.20. In series [2], the amount remaining at 1 h, 1 µM was 74%; the fraction remaining at 2 h, 1 µM was 63%; the amount remaining at 4 h, 1 µM was 43%.
As for `Cc1cccc2c(C[C@@H]3NC(=O)CCCCCCCCCCNC(=O)CC[C@@H](C(=O)N[C@@H](CC(N)=O)C(=O)N[C@@H](Cc4cccnc4)C(=O)N(C)CC(N)=O)NC(=O)C(C)(C)NC(=O)[C@@H](Cc4ccc5ccccc5c4)NC(=O)[C@H](Cc4ccc(OCCN(C)C)cc4)NC(=O)C4(CCOCC4)NC(=O)[C@H](CCC(N)=O)NC3=O)c[nH]c12` [compound 4] ([Aun][Trp(7-Me)]Q[Thp]Y(Me2NCH2CH2)[d2Nal][Aib]EN[3Pal][Sar]-NH2; lactam N-8), in series [1], the pIC50 was 9.21. In addition, in series [2], the share remaining at 1 h, 1 µM was 90%; the fraction remaining at 2 h, 1 µM is 87%; the amount remaining at 4 h, 1 µM is 82%.
For the molecule `Cc1cccc2c(C[C@@H]3NC(=O)CCCCCCCCCCCNC(=O)CC[C@@H](C(=O)N[C@@H](CC(N)=O)C(=O)N[C@@H](Cc4cccnc4)C(=O)N(C)CC(N)=O)NC(=O)C(C)(C)NC(=O)[C@H](Cc4ccc5ccccc5c4)NC(=O)[C@H](Cc4ccc(OCCN(C)C)cc4)NC(=O)C4(CCOCC4)NC(=O)[C@H](CCC(N)=O)NC3=O)c[nH]c12` [compound 2] ([12Ado][Trp(7-Me)]Q[Thp]Y(Me2NCH2CH2)[2Nal][Aib]EN[3Pal][Sar]-NH2; lactam N-8), the pIC50 in series [1] is 9.49. Moreover, in series [2], the fraction remaining at 1 h, 1 µM was 100%; the fraction remaining at 2 h, 1 µM is 94%; the fraction remaining at 4 h, 1 µM was 94%.
Take `Cc1cccc2c(C[C@@H]3NC(=O)CCCCCCC(=O)NCCCC[C@@H](C(=O)N[C@@H](CC(N)=O)C(=O)N[C@@H](Cc4cccnc4)C(=O)N(C)CC(N)=O)NC(=O)C(C)(C)NC(=O)[C@H](Cc4ccc5ccccc5c4)NC(=O)[C@H](Cc4ccc(OCCN(C)C)cc4)NC(=O)C4(CCOCC4)NC(=O)[C@H](CCC(N)=O)NC3=O)c[nH]c12` [compound 12] ([Trp(7-Me)]Q[Thp]Y(Me2NCH2CH2)[2Nal][Aib]KN[3Pal][Sar]-NH2; linker N-7 via Suberoyl): the pIC50 in series [1] is 9.21. In series [2], the amount remaining at 1 h, 1 µM was 79%; the amount remaining at 2 h, 1 µM was 77%; the share remaining at 4 h, 1 µM was 78%.
For `Cc1cccc2c(C[C@@H]3NC(=O)COCCOCCOCCNC(=O)CC[C@@H](C(=O)N[C@@H](CC(N)=O)C(=O)N[C@@H](Cc4cccnc4)C(=O)N(C)CC(N)=O)NC(=O)C(C)(C)NC(=O)[C@H](Cc4ccc5ccccc5c4)NC(=O)[C@H](Cc4ccc(OCCN(C)C)cc4)NC(=O)C4(CCOCC4)NC(=O)[C@H](CCC(N)=O)NC3=O)c[nH]c12` [compound 14] ([AEEEA][Trp(7-Me)]Q[Thp]Y(Me2NCH2CH2)[2Nal][Aib]EN[3Pal][Sar]-NH2; lactam N-8) the same measures were 9.34, 94%, 90% and 88%.
Regarding `Cc1cccc2c(C[C@@H]3NC(=O)CCCCCCCCC(=O)NCCCC[C@@H](C(=O)N[C@@H](CC(N)=O)C(=O)N[C@@H](Cc4cccnc4)C(=O)N(C)CC(N)=O)NC(=O)C(C)(C)NC(=O)[C@H](Cc4ccc5ccccc5c4)NC(=O)[C@H](Cc4ccc(OCCN(C)C)cc4)NC(=O)C4(CCOCC4)NC(=O)[C@H](CCC(N)=O)NC3=O)c[nH]c12` [compound 11] ([Trp(7-Me)]Q[Thp]Y(Me2NCH2CH2)[2Nal][Aib]KN[3Pal][Sar]-NH2; linker N-7 via Sebacoyl), in series [1], the pIC50 is 9.21. Besides, in series [2], the fraction remaining at 1 h, 1 µM is 74%; the fraction remaining at 2 h, 1 µM is 73%; the share remaining at 4 h, 1 µM was 69%.
For `Cc1cccc2c(C[C@@H]3NC(=O)CCCCCCCCCCNC(=O)CC[C@@H](C(=O)N[C@@H](CC(N)=O)C(=O)N[C@@H](Cc4cccnc4)C(=O)N(C)CC(N)=O)NC(=O)C(C)(C)NC(=O)[C@H](Cc4ccc5ccccc5c4)NC(=O)[C@H](Cc4ccc(OCCN(C)C)cc4)NC(=O)C4(CCOCC4)NC(=O)[C@H](CC(C)C)NC3=O)c[nH]c12` [compound 7] ([Aun][Trp(7-Me)]L[Thp]Y(Me2NCH2CH2)[2Nal][Aib]EN[3Pal][Sar]-NH2; lactam N-8), the pIC50 in series [1] was 8.62. In addition, in series [2], the amount remaining at 1 h, 1 µM was 80%; the amount remaining at 2 h, 1 µM was 81%; the fraction remaining at 4 h, 1 µM was 82%.
For the molecule `Cc1cccc2c(C[C@@H]3NC(=O)CCCCCCCCCCC(=O)NCCCC[C@@H](C(=O)N[C@@H](CC(N)=O)C(=O)N[C@@H](Cc4cccnc4)C(=O)N(C)CC(N)=O)NC(=O)C(C)(C)NC(=O)[C@H](Cc4ccc5ccccc5c4)NC(=O)[C@H](Cc4ccc(OCCN(C)C)cc4)NC(=O)C4(CCOCC4)NC(=O)[C@H](CCC(N)=O)NC3=O)c[nH]c12` [compound 10] ([Trp(7-Me)]Q[Thp]Y(Me2NCH2CH2)[2Nal][Aib]KN[3Pal][Sar]-NH2; linker N-7 via C12 diacid), the pIC50 in series [1] is 9.26. Moreover, in series [2], the fraction remaining at 1 h, 1 µM is 79%; the fraction remaining at 2 h, 1 µM was 78%; the fraction remaining at 4 h, 1 µM is 77%.
Take `Cc1cccc2c(C[C@@H]3NC(=O)CCCCCCCNC(=O)CC[C@@H](C(=O)N[C@@H](CC(N)=O)C(=O)N[C@@H](Cc4cccnc4)C(=O)N(C)CC(N)=O)NC(=O)C(C)(C)NC(=O)[C@H](Cc4ccc5ccccc5c4)NC(=O)[C@H](Cc4ccc(OCCN(C)C)cc4)NC(=O)C4(CCOCC4)NC(=O)[C@H](CC(C)C)NC3=O)c[nH]c12` [compound 9] ([Aoc][Trp(7-Me)]L[Thp]Y(Me2NCH2CH2)[2Nal][Aib]EN[3Pal][Sar]-NH2; lactam N-8): the pIC50 in series [1] was 9.03. In series [2], the fraction remaining at 1 h, 1 µM was 74%; the share remaining at 2 h, 1 µM is 76%; the fraction remaining at 4 h, 1 µM was 74%.
